Assay: Solubility of envelope-disordering compounds in the diol compounds
Conditions: typical compositions

CCCCCCCCCCO [n-decanol]
soluble in the diol compounds / same compositions up to: up to 50 % by weight

Source: US4954487A, “Penetrating topical pharmaceutical compositions” (The Procter & Gamble Company, priority 1989, dated 1990)
